Reference: ChEMBL document CHEMBL1129306, “3-((4-(4-Chlorophenyl)piperazin-1-yl)-methyl)-1H-pyrrolo-2,3-b-pyridine: an antagonist with high affinity and selectivity for the human dopamine D4 receptor” (J Med Chem, 1996)

Legend:
[1] = target: D(3) dopamine receptor (Homo sapiens, UniProt P35462); assay: biochemical
Description: Binding affinity towards cloned human Dopamine receptor D3 stably expressed in CHO cells was evaluated using [3H]spiperone as radioligand

[2] = target: T1, D(4) dopamine receptor (Homo sapiens, UniProt P21917); assay: biochemical
T1 sequence (P21917 whole entry): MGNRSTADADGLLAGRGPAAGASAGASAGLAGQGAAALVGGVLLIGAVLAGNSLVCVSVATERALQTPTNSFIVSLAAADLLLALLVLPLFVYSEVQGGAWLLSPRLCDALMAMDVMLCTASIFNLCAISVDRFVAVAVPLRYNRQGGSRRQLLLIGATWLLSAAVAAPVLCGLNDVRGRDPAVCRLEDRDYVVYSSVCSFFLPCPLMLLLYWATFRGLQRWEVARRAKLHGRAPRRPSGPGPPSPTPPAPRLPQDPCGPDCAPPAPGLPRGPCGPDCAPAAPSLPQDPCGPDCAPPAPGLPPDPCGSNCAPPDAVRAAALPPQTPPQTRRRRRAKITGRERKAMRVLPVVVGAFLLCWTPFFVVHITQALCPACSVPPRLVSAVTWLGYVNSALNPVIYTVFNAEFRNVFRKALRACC
Description: Binding affinity towards cloned human Dopamine receptor D4 stably expressed in CHO cells was evaluated using [3H]spiperone as radioligand

D(3) dopamine receptor, sequence (P35462 whole entry): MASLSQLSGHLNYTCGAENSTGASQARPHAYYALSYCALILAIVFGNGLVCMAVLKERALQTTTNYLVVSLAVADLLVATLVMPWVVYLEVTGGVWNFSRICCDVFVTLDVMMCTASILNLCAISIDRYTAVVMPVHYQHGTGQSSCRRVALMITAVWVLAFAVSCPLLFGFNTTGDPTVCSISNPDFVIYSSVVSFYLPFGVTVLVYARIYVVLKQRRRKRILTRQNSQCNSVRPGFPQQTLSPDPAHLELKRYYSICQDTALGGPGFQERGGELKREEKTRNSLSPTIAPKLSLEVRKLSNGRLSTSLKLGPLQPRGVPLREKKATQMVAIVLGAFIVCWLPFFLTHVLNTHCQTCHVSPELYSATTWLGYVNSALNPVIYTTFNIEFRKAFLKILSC

## OC1(c2ccc(Cl)cc2)CCN(Cc2c[nH]c3ccccc23)CC1
[1]
  Ki: 100 nM
[2]
  Ki: 220 nM

## CC1CCN(Cc2c[nH]c3ccccc23)CC1
[1]
  Ki: 6700 nM
[2]
  Ki: 570 nM

## c1ccc2c(CN3CCCCC3)c[nH]c2c1
[1]
  Ki: > 3700 nM
[2]
  Ki: > 2600 nM

## c1ccc(C2CCN(Cc3c[nH]c4ccccc34)CC2)cc1
[1]
  Ki: 95 nM
[2]
  Ki: 25 nM

## c1ccc(N2CCN(Cc3c[nH]c4ccccc34)CC2)cc1
[1]
  Ki: 280 nM
[2]
  Ki: 8 nM

## Ic1ccc(N2CCN(Cc3c[nH]c4ncccc34)CC2)cc1
[1]
  Ki: > 4500 nM
[2]
  Ki: 0.51 nM
